The nature of experiment [1]: Protection against clonic seizures caused by pentylenetetrazole. The note with it: orally or intraperitoneally, pentylenetetrazole 23 mg/kg i.v. at 30 or 60 min. The experiment is classed as in vivo, rats. How it is done:
The anti-anxiety properties of the novel compounds of the present invention have been established in a test which indicates anxiolytic activity by the measure of protection from convulsions resulting from the administration of pentylenetetrazole. Single or graded dose levels of the test compounds were administered orally or intraperitoneally in a 2 percent starch vehicle containing 0.5 percent v/v polyethylene glycol and one drop of Polysorbate 80, or distilled water and one drop of Polysorbate 80 to groups of at least four rats. At 30 or 60 minutes, the rats were treated intravenously with pentylenetetrazole at a dose of 23 mg/kg of body weight. This dose is estimated to cause clonic seizures in 99 percent of unprotected rats. The test compounds are considered active if they protect 50 percent or more of the rats from clonic seizures.
It has been reported (R. T. Hill and D. H. Tedeschi, "Animal Testing and Screening Procedures in Evaluating Psychotropic Drugs" in "An Introduction to Psychopharmacology", pp 237-288 (Eds. R. R. Rech and K. E. Moore, Raven Press, New York, 1971)) that there is a high degree of correlation between antagonism of pentylenetetrazole seizures in rats and anti-anxiety effects in higher warm-blooded animals.

Experiment [2] can be described thus: Passive-Avoidance Anoxic-Induced-Amnesia Test. The experiment is classed as in vivo, Swiss-Webster mice. The note with it: vs saline control, active if 30 percent. The source says: Another in vivo test associated with decreased neural function in mammals is the Passive-Avoidance Anoxic-Induced-Amnesia Test. This test is used to determine the attenuation of anoxic induced amnesia in mice treated with drug, as compared to saline treated control animals with no drug.
A shock-motivated, single trial, step-through passive avoidance procedure is used. Groups of 25 Swiss-Webster, middle aged mice (9 months of age) are placed singly in the front chamber of a 2-chamber box and are allowed to voluntarily cross into the rear chamber. As soon as the mouse enters the rear chamber, a door automatically traps the animal and a mild electric shock (0.4 mA for 4 seconds) is delivered to its feet. Following the foot shock, the mice are initially placed in an anoxic environment (0 percent oxygen) for 12 seconds, which quickly induces unconsciousness. They are then placed in a hypoxic environment (15 percent oxygen) for four minutes which prolongs the oxygen deprived state, maintaining unconsciousness. All testing is performed 24 hours later, and in all cases the mice appear fully recovered from the previous anoxic/hypoxic treatment. All test compounds are administered intraperitoneally at a dose of 5-200 mg/kg, 30 minutes prior to training and testing. Control animals are injected intraperitoneally only with saline at 0.01 cc/g of body weight.
The latency to enter the rear chamber is recorded for both training and testing. Presumably, the more the animal remembers being shocked, the greater it will inhibit going into the rear chamber and the higher will be its latency to re-enter. An improvement of 30 percent over saline control scores is considered active.

Several values for one entry are separate records, joined by “and”; a condition that tells them apart may be missing. Identical values can stand only once.

Regarding `CN(C)C=NC(=O)c1cnn2c1NCC=C2c1cccc(C(F)(F)F)c1` [N-((Dimethylamino)methylene)-4,5-dihydro-7-(3-(trifluoromethyl)phenylpyrazolo(1,5-a)-pyrimidine-3-carboxamide], the “% of Rats Protected” value is 88% in experiment [1] (12.5 mg/kg); 75% and 88% in experiment [1] (25 mg/kg). Moreover, the “% Improvement” value is on record as 49% in experiment [2] (25 mg/kg i.p.) and 57% in experiment [2] (50 mg/kg i.p.).

Values taken from US5169850A, “N-(dialkylamino)methylene)-substituted pyrazolo(1,5-a)-pyrimidine-3-carboxamides and N-(dialkylamino)methylene-substituted-4,5-dihydropyrazolo-(1,5-a)-pyrimi dine-3-carboxamides” (American Cyanamid Company, priority 1991, dated 1992).
